Where two headings read alike, the source gives them in different places.
Target: cellular cereblon (CRBN) (Homo sapiens, UniProt Q96SW2)
Assay: NanoBRET Target Engagement Assay, competition with pomalidomide tracer in 293T.116 cells
Conditions: for NanoBRET TE 293T.116 CRBN 6 hours IP nM / NanoBRET TE 293T.116 CRBN 24 hours IP nM / IC50 / NanoBRET TE 293T.116 CRBN 2 hours IP nM: 293T.116 cells
[1] = NanoBRET TE 293T.116 CRBN 6 hours IC50 nM, 6 hours incubation
[2] = NanoBRET TE 293T.116 CRBN 24 hours IC50 nM, 24 hours incubation
[3] = read-out: NanoBRET TE 293T.116 CRBN 6 hours Emax
[4] = read-out: NanoBRET TE 293T.116 CRBN 24 hours Emax
[5] = NanoBRET TE 293T.116 CRBN 2 hours IC50 nM, 2 hours incubation
[6] = read-out: NanoBRET TE 293T.116 CRBN 2 hours Emax

| SMILES | NanoBRET TE 293T.116 CRBN 6 hours IP nM (6 hours incubation) | NanoBRET TE 293T.116 CRBN 24 hours IP nM (24 hours incubation) | IC50 [1] | IC50 [2] | Emax [3] | Emax [4] | NanoBRET TE 293T.116 CRBN 2 hours IP nM (2 hours incubation) | IC50 [5] | Emax [6] |
| --- | --- | --- | --- | --- | --- | --- | --- | --- | --- |
| COc1cc(OC2CCC(=O)NC2=O)cc(OS(=O)(=O)F)c1 (stereo not drawn) [Compound A-21, 3-(3-fluorosulfonyloxy-5-methoxy-phenoxy)-2,6-dioxo-piperidine] | *** (<= 1 μM is ***) | ** (<10 μM and >1 μM is **) | < 1000 nM | 1000 to 10000 nM | < 50% | < 50% |  |  |  |
| O=C1CCN(c2ccc(N3CCNCC3)c(OS(=O)(=O)F)c2)C(=O)N1 [drawing 1142] | * (>=10 μM is *) |  | 1000 to 10000 nM |  | < 50% |  |  |  |  |
| O=C1CCC(c2ccc(N3CCNCC3)c(OS(=O)(=O)F)c2)C(=O)N1 (stereo not drawn) [Compound A-36, 5-(2,6-dioxopiperidin-3-yl)-2-(piperazin-1-yl)phenyl sulfurofluoridate] | *** (<= 1 μM is ***) | *** (<= 1 μM is ***) | < 1000 nM | < 1000 nM | < 50% | < 50% | *** (<= 1 μM is ***) | < 1000 nM | < 50% |
| O=C1CCN(c2ccc(S(=O)(=O)F)cc2)C(=O)N1 [Compound A-14, 4-(2,4-dioxotetrahydropyrimidin-1(2H)-yl)benzenesulfonyl fluoride] | ** (<10 μM and >1 μM is **) | ** (<10 μM and >1 μM is **) | 1000 to 10000 nM | > 10000 nM | < 50% | 50 to 80% | ** (<10 μM and >1 μM is **) | 1000 to 10000 nM | < 50% |
| COc1ccc(OC2CCC(=O)NC2=O)cc1OS(=O)(=O)F (stereo not drawn) [Compound A-27, 5-((2,6-dioxopiperidin-3-yl)oxy)-2-methoxyphenyl sulfurofluoridate] | ** (<10 μM and >1 μM is **) | ** (<10 μM and >1 μM is **) | 1000 to 10000 nM | > 10000 nM | < 50% | 50 to 80% | ** (<10 μM and >1 μM is **) | 1000 to 10000 nM | < 50% |
| O=C1CCN(c2ccc(N3CCNCC3)c(OS(=O)(=O)F)c2)C(=O)N1 [Compound A-39, 5-(2,4-dioxotetrahydropyrimidin-1(2H)-yl)-2-(piperazin-1-yl)phenyl sulfurofluoridate] |  |  |  |  |  |  | * (>=10 μM is *) | > 10000 nM | 50 to 80% |
| CN(c1cccc(S(=O)(=O)F)c1)C1CCC(=O)NC1=O (stereo not drawn) [Compound A-11, 3-((2,6-dioxopiperidin-3-yl)(methyl)amino)benzenesulfonyl fluoride] | *** (<= 1 μM is ***) | *** (<= 1 μM is ***) | < 1000 nM | < 1000 nM | < 50% | < 50% | *** (<= 1 μM is ***) | < 1000 nM | < 50% |
| O=C1CCC(c2ccc(S(=O)(=O)F)cc2)C(=O)N1 (stereo not drawn) [Compound A-12, 4-(2,6-dioxopiperidin-3-yl)benzenesulfonyl fluoride] | *** (<= 1 μM is ***) | *** (<= 1 μM is ***) | < 1000 nM | 1000 to 10000 nM | < 50% | < 50% | *** (<= 1 μM is ***) | < 1000 nM | < 50% |
| O=C1CCC(n2c(=O)oc3c(S(=O)(=O)F)cccc32)C(=O)N1 (stereo not drawn) [Compound A-29, 3-(2,6-dioxopiperidin-3-yl)-2-oxo-2,3-dihydrobenzo[d]oxazole-7-sulfonyl fluoride] | *** (<= 1 μM is ***) | ** (<10 μM and >1 μM is **) | < 1000 nM | 1000 to 10000 nM | < 50% | < 50% |  |  |  |
| CN(c1cccc(OS(=O)(=O)F)c1)C1CCC(=O)NC1=O (stereo not drawn) [Compound A-18, 3-((2,6-dioxopiperidin-3-yl)(methyl)amino)phenyl sulfurofluoridate] | * (>=10 μM is *) | ** (<10 μM and >1 μM is **) | 1000 to 10000 nM | 1000 to 10000 nM | < 50% | < 50% | ** (<10 μM and >1 μM is **) | 1000 to 10000 nM | < 50% |
| O=C1NC(=O)C2(c3ccc(S(=O)(=O)F)cc3)CC1C2 [Compound A-34, 4-(2,4-dioxo-3-azabicyclo[3.1.1]heptan-1-yl)benzenesulfonyl fluoride] | ** (<10 μM and >1 μM is **) | * (>=10 μM is *) | 1000 to 10000 nM | > 10000 nM | < 50% | > 80% | ** (<10 μM and >1 μM is **) | 1000 to 10000 nM | < 50% |
